The values that follow are results of earlier work, collected in patent US6440947B1, “Method for treating occlusive peripheral vascular disease and coronary disease” (The Regents of the University of California, priority 1997, dated 2002).

In series [1] the test system is human umbilical vein endothelial cell cultures. The note with it: physiological concentrations.

Regarding `Nc1ncnc2c1ncn2[C@@H]1O[C@H](CO)[C@@H](O)[C@H]1O` [Adenosine, adenosine], the half-life in vivo result is listed as “less than 30 seconds”. In addition, in series [1], the “effect on endothelial cell proliferation” value is “stimulates proliferation”.
